Data on one molecule can be found in ChEMBL document CHEMBL1124471, “Design and synthesis of inhibitors of N8-acetylspermidine deacetylase” (J Med Chem, 1989).

The subject of this experiment is N8-acetylspermidine deacetylase (Rattus norvegicus). The experiment in a line: Inhibition of [acetyl-3H]-N8-Acetylspermidine deacetylase; NI = No inhibition.

SMILES strings stand for the structures.

Consider `COC(=O)NCCCCCCN`, for which the Ki app entry is reported as “Not Active”.
